Source: US10329296B2, “Indole derivatives” (Richter Gedeon Nyrt., priority 2015, dated 2019)
Counter-ions that a name gives are not always drawn.

Biological target: human MCH1 receptor (Homo sapiens, UniProt Q99705)
Test: MCHR1 antagonism functional assay, measuring cytoplasmic calcium concentration ([Ca2+]i);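 further: human MCH1 AequoScreen cells loaded with calcium-sensitive fluorescent dye, compounds preincubated one hour, then MCH given at its EC80, inhibition of ΔF/F rise relative to DMSO vehicle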
Protocol: Evaluation of MCHR1 Antagonism in Functional Assay
Cells: human MCH1 (SLC1) AequoScreen® Cell Line (Perkin Elmer ES-370-A, lot No: M4W-A2)
MCH was dissolved in MilliQ water (1 mM), aliquots were taken from the stock solution, and were kept at −20° C. One aliquot was used only once.
Assay buffer: HBSS+2 mM probenecid, pH=7.4
Measuring of Cytoplasmic Calcium Concentration ([Ca^2+]i):
On the day of measurement the culture medium was removed from the cells and a fluorescent Ca^2+-sensitive dye (FLIPR Calcium 5 kit, Molecular Devices R8186) was added to the cells at a 4× dilution compared to the recommended dilution by the manufacturer, in a volume of 100 μl/well, and cells were incubated at 37° C. for 10 min. […] The vehicle (DMSO, control treatment), or the buffer containing test compounds were added to the cells in a volume of 50 μl/well, and cells were incubated at 37° C. for further 60 min.
1 mM stock solution was made from the agonist in distilled water, this solution was distributed into aliquots, which were kept at −20° C. until use. One aliquot was used only once. Fluorescence was detected before addition of MCH for 20 s, and after addition of MCH for 40 s. MCH was applied at an EC80 concentration, the EC80-values were determined individually for every plate/experiment. For this whole MCH dose-response curves were determined on one part of the plate, 4 parameter sigmoidal curves were fitted to the experimental data by nonlinear regression, MCH EC80 values were derived from the fitted curve. The raw fluorescence data were converted into ΔF/F values (the maximum fluorescence value obtained after addition of MCH was normalized to the baseline fluorescence: ΔF/F=(Fmax−Fbaseline)/Fbaseline). […] IC50 values of the tested compounds were determined by fitting 4 parameter sigmoidal curves to inhibition % data. Data processing, including fitting curves by nonlinear regression, was done by SoftMaxPro software.

Row | Structure (SMILES) | IC50 [nM]
1 | O=c1cc(OCc2ccc(Cl)cn2)ccn1-c1ccc2c(c1)c(Cl)c1n2CCN(CCF)CC1 | 15.5
2 | O=c1cc(OCc2ccc(Cl)cn2)ccn1-c1ccc2c(c1)cc1n2CCN(CCF)CC1 | 10
3 | O=c1cc(OCc2ccc(F)cn2)ccn1-c1ccc2c(c1)cc1n2CCNCC1 [Example 1, 1-{1H,2H,3H,4H,5H-[1,4]diazepino[1,7-a]indol-9-yl}-4-[(5-fluoropyridin-2-yl)methoxy]-1,2-dihydropyridin-2-one hydrochloride salt] | 17.6
4 | COc1ccc(COc2ccn(-c3ccc4c(c3)cc3n4CCNCC3)c(=O)c2)cc1 [Example 2, 1-{1H,2H,3H,4H,5H-[1.4]diazepino[1,7-a]indol-9-yl}-4-[(4-methoxyphenyl)-methoxy]-1,2-dihydropyridin-2-one hydrochloride salt] | 32.9
5 | O=c1cc(OCc2ccccc2)ccn1-c1ccc2c(c1)cc1n2CCNCC1 [Example 3, 4-(benzyloxy)-1-{1H,2H,3H,4H,5H-[1,4]diazepino[1,7-a]indol-9-yl}-1,2-dihydropyridin-2-one maleic acid salt] | 17.7
6 | O=c1cc(OCc2ccc(Cl)cn2)ccn1-c1ccc2c(c1)cc1n2CCNCC1 [Example 4, 4-[(5-chloropyridin-2-yl)methoxy]-1-{1H,2H,3H,4H,5H-[1,4]diazepino[1,7-a]indol-9-yl}-1,2-dihydropyridin-2-one dihydrochloride salt] | 9.8
7 | O=c1cc(OCc2ccc(F)cc2)ccn1-c1ccc2c(c1)cc1n2CCNCC1 [Example 5, 1-{1H,2H,3H,4H,5H-[1,4]diazepino[1,7-a]indol-9-yl}-4-[(4-fluorophenyl)methoxy]-1,2-dihydropyridin-2-one hydrochloride salt] | 12
8 | O=c1cc(OCc2ccc(Cl)cc2)ccn1-c1ccc2c(c1)cc1n2CCNCC1 [Example 6, 4-[(4-chlorophenyl)methoxy]-1-{1H,2H,3H,4H,5H-[1,4]diazepino[1,7-a]indol-9-yl}-1,2-dihydropyridin-2-one hydrochloride salt] | 11.9
9 | O=c1cc(OCc2ccccc2F)ccn1-c1ccc2c(c1)cc1n2CCNCC1 [Example 7, 1-{1H,2H,3H,4H,5H-[1,4]diazepino[1,7-a]indol-9-yl}-4-[(2-fluorphenyl)methoxy]-1,2-dihydropyridin-2-one hydrochloride salt] | 27.7
10 | O=c1cc(OCc2ccc(C(F)(F)F)cc2)ccn1-c1ccc2c(c1)cc1n2CCNCC1 [Example 8, 1-{1H,2H,3H,4H,5H-[1,4]diazepino[1,7-a]indol-9-il}-4-{[4-(trifluoromethyl)phenyl]methoxy}-1,2-dihydropyridin-2-one hydrochloride salt] | 123
11 | CN1CCc2cc3cc(-n4ccc(OCc5ccc(F)cn5)cc4=O)ccc3n2CC1 [Example 9, 4-[(5-fluoropyridin-2-yl)methoxy]-1-{3-methyl-1H,2H,3H,4H,5H-[1,4]diazepino[1,7-a]indol-9-yl}-1,2-dihydropyridin-2-one maleic acid salt] | 14.9
12 | CN1CCc2cc3cc(-n4ccc(OCc5ccccc5)cc4=O)ccc3n2CC1 [Example 10, 4-(benzyloxy)-1-{3-methyl-1H,2H,3H,4H,5H-[1,4]diazepino[1,7-a]indol-9-yl}-1,2-dihydropyridin-2-one hydrochloride salt] | 9.2
13 | CN1CCc2cc3cc(-n4ccc(OCc5ccc(Cl)cn5)cc4=O)ccc3n2CC1 [Example 11, 4-[(5-chloropyridin-2-yl)methoxy]-1-{3-methyl-1H,2H,3H,4H,5H-[1,4]diazepino[1,7-a]indol-9-yl}-1,2-dihydropyridin-2-one] | 9.6
14 | CN1CCc2cc3cc(-n4ccc(OCc5ccc(Cl)cc5)cc4=O)ccc3n2CC1 [Example 12, 4-[(4-chlorophenol)methoxy]-1-{3-methyl-1H,2H,3H,4H,5H-[1,4]diazepino[1,7-a]indol-9-yl}-1,2-dihydropyridin-2-one maleic acid salt] | 9
15 | CCN1CCc2cc3cc(-n4ccc(OCc5ccc(OC)cc5)cc4=O)ccc3n2CC1 [Example 14, 1-{3-ethyl-1H,2H,3H,4H,5H-[1,4]diazepino[1,7-a]indol-9-yl}-4-[(4-methoxyphenyl)methoxy]-1,2-dihydropyridin-2-one] | 7.9
16 | CCN1CCc2cc3cc(-n4ccc(OCc5ccc(Cl)cn5)cc4=O)ccc3n2CC1 [Example 15, 4-[(5-chloropyridin-2-yl)methoxy]-1-{3-etil-1H,2H,3H,4H,5H-[1,4]diazepino[1,7-a]indol-9-yl}-1,2-dihydropyridin-2-one] | 6.5
17 | CCN1CCc2cc3cc(-n4ccc(OCc5ccc(F)cc5)cc4=O)ccc3n2CC1 [Example 16, 1-{3-ethyl-1H,2H,3H,4H,5H-[1,4]diazepino[1,7-a]indol-9-yl}-4-[(4-fluorophenyl)methoxy]-1,2-dihydropyridin-2-one] | 7.2

Row | Structure (SMILES) | IC50 [nM]
18 | CC(=O)N1CCc2cc3cc(-n4ccc(OCc5ccc(Cl)cn5)cc4=O)ccc3n2CC1 [Example 17, 1-{3-acetyl-1H,2H,3H,4H,5H-[1,4]diazepino[1,7-a]indol-9-yl}-4-[(5-chloropyridin-2-yl)methoxy]-1,2-dihydropyridin-2-one] | 18.9
19 | CC(C)N1CCc2cc3cc(-n4ccc(OCc5ccc(F)cn5)cc4=O)ccc3n2CC1 [Example 18, 4-[(5-fluoropyridin-2-yl)methoxy]-1-[3-(propan-2-yl)-1H,2H,3H,4H,5H-[1,4]diazepino[1,7-a]indol-9-yl]-1,2-dihydropyridin-2-one maleic acid salt] | 15.2
20 | CC(C)N1CCc2cc3cc(-n4ccc(OCc5ccccc5)cc4=O)ccc3n2CC1 [Example 19, 4-(benzyloxy)-1-[3-(propan-2-yl)-1H,2H,3H,4H,5H-[1,4]diazepino[1,7-a]indol-9-yl]-1,2-dihydropyridin-2-one hydrochloride salt] | 8.2
21 | CC(C)N1CCc2cc3cc(-n4ccc(OCc5ccc(Cl)cn5)cc4=O)ccc3n2CC1 [Example 20, 4-[(5-chloropyridin-2-yl)methoxy]-1-[3-(propan-2-yl)-1H,2H,3H,4H,5H-[1,4]diazepino[1,7-a]indol-9-yl]-1,2-dihydropyridin-2-one maleic acid salt] | 6.2
22 | CC(C)N1CCc2cc3cc(-n4ccc(OCc5ccc(F)cc5)cc4=O)ccc3n2CC1 [Example 21, 4-[(4-fluorophenyl)methoxy]-1-[3-(propan-2-yl)-1H,2H,3H,4H,5H-[1,4]diazepino[1,7-a]indol-9-yl]-1,2-dihydropyridin-2-one] | 8
23 | CC(C)N1CCc2cc3cc(-n4ccc(OCc5ccc(Cl)cc5)cc4=O)ccc3n2CC1 [Example 22, 4-[(4-chlorophenyl)methoxy]-1-[3-(propan-2-yl)-1H,2H,3H,4H,5H-[1,4]diazepino[1,7-a]indol-9-yl]-1,2-dihydropyridin-2-one maleic acid salt] | 7.2
24 | CC(C)N1CCc2cc3cc(-n4ccc(OCc5ccccc5F)cc4=O)ccc3n2CC1 [Example 23, 4-[(2-fluorophenyl)methoxy]-1-[3-(propan-2-yl)-1H,2H,3H,4H,5H-[1,4]diazepino[1,7-a]indol-9-yl]-1,2-dihydropyridin-2-one hydrochloride salt] | 15.7
25 | CC(C)N1CCc2c(Cl)c3cc(-n4ccc(OCc5ccc(Cl)cn5)cc4=O)ccc3n2CC1 [Example 24, 1-[11-chloro-3-(propan-2-yl)-1H,2H,3H,4H,5H-[1,4]diazepino[1,7-a]indol-9-yl]-4-[(5-chloropyridin-2-yl)methoxy]-1,2-dihydropyridin-2-one maleic acid salt] | 18.5
26 | CC(C)N1CCc2c(Br)c3cc(-n4ccc(OCc5ccc(Cl)cn5)cc4=O)ccc3n2CC1 [Example 25, 1-[11-bromo-3-(propan-2-yl)-1H,2H,3H,4H,5H-[1,4]diazepino[1,7-a]indol-9-yl]-4-[(5-chloropyridin-2-yl)methoxy]-1,2-dihydropyridin-2-one maleic acid salt] | 30.7
27 | CC(C)N1CCc2c(I)c3cc(-n4ccc(OCc5ccc(Cl)cn5)cc4=O)ccc3n2CC1 [Example 26, 4-[(5-chloropyridin-2-yl)methoxy]-1-[11-iodo-3-(propan-2-yl)-1H,2H,3H,4H,5H-[1,4]diazepino[1,7-a]indol-9-yl]-1,2-dihydropyridin-2-one maleic acid salt] | 38.8
28 | CC(C)N1CCc2c(Cl)c3cc(-n4ccc(OCc5ccccc5)cc4=O)ccc3n2CC1 [Example 27, 4-(benzyloxy)-1-[11-chloro-3-(propan-2-yl)-1H,2H,3H,4H,5H-[1,4]diazepino[1,7-a]indol-9-yl]-1,2-dihydropyridin-2-one hydrochloride salt] | 29.9
29 | O=c1cc(OCc2ccc(Cl)cn2)ccn1-c1ccc2c(c1)cc1n2CCN(CC2CC2)CC1 [Example 28, 4-[(5-chloropyridin-2-yl)methoxy]-1-[3-(cyclopropylmethyl)-1H,2H,3H,4H,5H-[1,4]diazepino[1,7-a]indol-9-yl]-1,2-dihydropyridin-2-ond maleic acid salt] | 6.2
30 | O=c1cc(OCc2ccccc2)ccn1-c1ccc2c(c1)cc1n2CCN(C2CC2)CC1 [Example 29, 4-(benzyloxy)-1-{3-cyclopropyl-1H,2H,3H,4H,5H-[1,4]diazepino[1,7-a]indol-9-yl}-1,2-dihydropyridin-2-one maleic acid salt] | 12.9
31 | O=c1cc(OCc2ccc(Cl)cn2)ccn1-c1ccc2c(c1)cc1n2CCN(C2CC2)CC1 [Example 30, 4-[(5-chloropyridin-2-yl)methoxy]-1-{3-cyclopropyl-1H,2H,3H,4H,5H-[1,4]diazepino[1,7-a]indol-9-yl}-1,2-dihydropyridin-2-one maleic acid salt] | 17.2
32 | O=c1cc(OCc2ccc(Cl)cn2)ccn1-c1ccc2c(c1)cc1n2CCN(C2CCC2)CC1 [Example 31, 4-[(5-chloropyridin-2-yl)methoxy]-1-(3-cyclobutyl-1H,2H,3H,4H,5H-[1,4]diazepino[1,7-a]indol-9-yl)-1,2-dihydropyridin-2-one maleic acid salt] | 12.3
33 | Cc1c2n(c3ccc(-n4ccc(OCc5ccc(Cl)cn5)cc4=O)cc13)CCN(C(C)C)CC2 [Example 34, 4-[(5-chloropyridin-2-yl)methoxy]-1-[11-methyl-3-(propan-2-yl)-1H,2H,3H,4H,5H-[1,4]diazepino[1,7-a]indol-9-yl]-1,2-dihydropyridin-2-one maleic acid salt] | 14.3
